Here are results for 16 molecules from ChEMBL document CHEMBL1287745, “AdoHcy hydrolase of Trichomonas vaginalis: studies of the effects of 5'-modified adenosine analogues and related 6-N-cyclopropyl derivatives” (Bioorg Med Chem Lett, 2010).

≈ marks a conversion by molar mass, not a printed value. Where “and” joins values, the source holds several entries; their conditions need not be identical. Equal values may be shown once.

The IC50 is the midpoint of a concentration-inhibition curve.

In assay [1] the test system is Trichomonas vaginalis. The experiment in a line: Antiparasitic activity against Trichomonas vaginalis T1 at […] after 24 hrs by hemocytometric analysis. It counts as functional.
Assay [2] relates to Trichomonas vaginalis. The experiment in a line: […] activity against Trichomonas vaginalis T1. It counts as functional, organism-based.
The test system of another assay is Trypanosoma. The experiment in a line: Antimicrobial activity against Trypanosoma. It counts as functional, organism-based.
Setting [3] is: Trichomonas vaginalis, T1, read-out: IC50.

Consider `Nc1ncnc2c1ncn2[C@@H]1C[C@H](CO)[C@@H](O)[C@H]1O` [ARISTEROMYCIN], for which the “growth inhibition (GI)” value in the assay with Trichomonas vaginalis [1] is recorded as 95%. The IC50 with Trichomonas vaginalis [2] (setting [3]) was 10 µM and 3 µg/mL. For `Nc1ncnc2c1ncn2[C@@H]1O[C@H](/C=C\I)[C@@H](O)[C@H]1O`, the “growth inhibition (GI)” value with Trichomonas vaginalis [1] came to 81%. For the same molecule, the IC50 in the assay on Trichomonas vaginalis [2] (setting [3]) was 76 µM and 24 µg/mL. With `Nc1ncnc2c1ncn2[C@@H]1O[C@H](C=NO)[C@@H](O)[C@H]1O`, the “growth inhibition (GI)” value in the assay on Trichomonas vaginalis [1] is 93%. The IC50 with Trichomonas vaginalis [2] (setting [3]) is 40 µM and 11 µg/mL. With `COC(=O)[C@H]1O[C@@H](n2cnc3c(N)ncnc32)[C@H](O)[C@@H]1O`, the “growth inhibition (GI)” value in the assay with Trichomonas vaginalis [1] is recorded as 4%. As for `Nc1ncnc2c1ncn2[C@@H]1C[C@H](C(=O)O)[C@@H](O)[C@H]1O`, the “growth inhibition (GI)” value in the assay with Trichomonas vaginalis [1] stood at 36%. For the molecule `Nc1ncnc2c1ncn2[C@@H]1O[C@H](/C=C/I)[C@@H](O)[C@H]1O`, the “growth inhibition (GI)” value in the assay on Trichomonas vaginalis [1] amounted to 85%. In addition, the IC50 in the assay on Trichomonas vaginalis [2] (setting [3]) was 60 µM and 19 µg/mL.

`Cc1ncc([N+](=O)[O-])n1CCO` [METRONIDAZOLE]: the IC50 with Trichomonas vaginalis [2] (setting [3]) was determined as 0.12 µg/mL (≈ 0.701 µM). Take `O[C@@H]1[C@H](O)[C@@H](C=CI)O[C@H]1n1cnc2c(NC3CC3)ncnc21`: the IC50 in the assay on Trypanosoma (Trypanosoma, read-out: IC50) was 12 µg/mL (≈ 28 µM); in the assay on Trichomonas vaginalis [2] it was “Not Active”. Besides, in the assay with Trichomonas vaginalis [1], the “growth inhibition (GI)” value is 24%. Consider `O[C@@H]1[C@H](O)[C@@H](C=CF)O[C@H]1n1cnc2c(NC3CC3)ncnc21`, for which the IC50 with Trypanosoma (Trypanosoma, read-out: IC50) was found to be 19 µg/mL (≈ 59.1 µM). Further, the “growth inhibition (GI)” value with Trichomonas vaginalis [1] is on record as 10%.

Take `Nc1ncnc2c1ncn2[C@@H]1O[C@H](/C=C/CCCC(=O)O)[C@@H](O)[C@H]1O`: the “growth inhibition (GI)” value with Trichomonas vaginalis [1] is 22%. Same read-out and setting: the same measure for `Nc1ncnc2c1ncn2CCC(O)CO` (stereo not given): 11%. As for `Nc1ncnc2c1ncn2[C@@H]1O[C@H](C(=O)O)[C@@H](O)[C@H]1O` [5'-CARBOXY ADENOSINE], the “growth inhibition (GI)” value with Trichomonas vaginalis [1] came out at 17%. With `O[C@@H]1[C@H](O)[C@@H](C=C(Br)Br)O[C@H]1n1cnc2c(NC3CC3)ncnc21`, the IC50 entry with Trypanosoma is reported as “Not Active”. Further, the “growth inhibition (GI)” value in the assay with Trichomonas vaginalis [1] was determined as 12%.

For the molecule `Nc1ncnc2c1ncn2[C@@H]1O[C@H](/C=C/C#CI)[C@@H](O)[C@H]1O`, the “growth inhibition (GI)” value with Trichomonas vaginalis [1] is 34%.

For `COC(=O)C(O)CCn1cnc2c(N)ncnc21` (stereo not given), the “growth inhibition (GI)” value in the assay with Trichomonas vaginalis [1] is 16%. Regarding `ON=C[C@H]1O[C@@H](n2cnc3c(NC4CC4)ncnc32)[C@H](O)[C@@H]1O`, in the assay with Trypanosoma, the IC50 entry is “Not Active”. The “growth inhibition (GI)” value in the assay on Trichomonas vaginalis [1] stood at 41%.
